Test results taken from ChEMBL document CHEMBL4184274 (Bioorg Med Chem Lett, 2018).

Test: in vivo
Details: rat, 5 mg/kg

## CCN1CCN(Cc2ccc(Nc3ncc(F)c(-c4cc(F)c5nc(C)n(C(C)C)c5c4)n3)nc2)CC1 [ABEMACICLIB]
  AUC: 3280 ng·h/mL
